Experimental data published in patent publication US20230049952A1, “METHODS AND COMPOUNDS FOR RESTORING MUTANT P53 FUNCTION” (PMV Pharmaceuticals, Inc., priority 2020, published 2023).
Where two headings read alike, the source gives them in different places. One block for each compound: values may come before it.

Columns and labels:
MATE1 [1] = biological target: T1, MATE1 (Homo sapiens, UniProt Q96FL8); test: in vitro; conditions: HEK293 cells transfected with MATE1, probe metformin (50 µM)
MATE1 [2] = biological target: T1, MATE1; test: uptake transporter inhibition assessment, transfected HEK293; conditions: inhibitor 100 μM
in vitro [3] = conditions: for Analyte Peak/IS Peak Ares (Mean), T60-blood / Analyte Peak/IS Peak Ares (Mean), T60-plasma: 60 min; for Analyte Peak/IS Peak Ares (Mean), T60-blood / Analyte Peak/IS Peak Ares (Mean), T60-plasma / Analyte Peak/IS Peak Ares (Mean), T0: 2 μM; for Analyte Peak/IS Peak Ares (Mean), T0: 0 min
Protocol: All working solutions were freshly prepared similarly as described for the test article working solution.
Assay for determining Blood to plasma ratio: Pooled male CD-1 mouse, Sprague-Dawley rat, beagle dog and cynomolgus monkey plasma, and mixed gender human blood with EDTAK2 as anticoagulant were stored on wet ice and used the same day. […] After mixing thoroughly, 0.6 mL of spiked blood was transferred to a 96-well plate in triplicate. Concurrently, control compounds were spiked into each species blood in the same fashion to generate the final concentration of 2.0 μM.
The rest of the spiked blood samples were immediately placed into a humidified incubator with 5% CO2 at 37° C., with constant swiveling at 500 rpm for 60 min on a platform shaker. […] The T60-plasma samples for analysis were obtained by taking 50 μL of plasma from each well, mixed with 50 μL of blank blood and 100 μL of water, followed by addition of 600 μL stop solution. […] All the T0, T60-blood and T60-plasma samples were shaken vigorously at 800 rpm for 30 min followed by the centrifugation at 3220×g at 20° C. for 20 min. 100 μL aliquot of supernatant was diluted with 100 μL of water and mixed well for LC-MS/MS analysis.
Measurement of Hematocrit: The hematocrit (the volume percentage of erythrocytes in blood) was determined in triplicate for each species by centrifuging the blood samples with a HAEMATOKRIT 200 at 9440×g for 5 min.
Data analysis: The ratio of compound concentrations in whole blood over plasma (KB/P) and % Recovery in blood were calculated by the following equations: KB/P=[…]([T60-blood]/[T60-plasma]), where [T60-blood] is the peak area ratios of analyte/internal standard in whole blood sample at 60 min; [T60-plasma] is the peak area ratios of analyte/internal standard in plasma sample at 60 min; [T0-blood] is the peak area ratios of analyte/internal standard in whole blood sample at time zero.

CYP2C9 = CYP2C9 (Homo sapiens, UniProt P11712); conditions: 20 min, 6 μM, pH 7.4
P-GP [4] = biological target: T2, P-GP (Homo sapiens, UniProt P08183); test: in vitro
P-GP [5] = biological target: T2, P-GP; test: in vitro; conditions: Caco-2, pH 7.4
P-gp [6] = test: in vitro; conditions: dog, MDCK-MDR1, pH 7.4
P-gp (MDR1) = test: in vitro; conditions: dog, MDCK-MDR1
P-GP [7] = biological target: T2, P-GP; test: P-GP substrate assessment, Caco-2 monolayers
P-GP [8] = biological target: T2, P-GP; test: in vitro; conditions: dog, MDCK-MDR1, pH 7.4
P-gp [9] = test: in vitro; conditions: human, Caco-2, pH 7.4
in vitro [10] = conditions: human, Caco-2
P-GP [11] = biological target: T2, P-GP; test: P-GP substrate assessment, MDR1-MDCK monolayers; conditions: for Recovery (%): B-to-A
P-GP [12] = biological target: T2, P-GP; conditions: Caco-2, 120 min, 10 µM, pH 7.4
CYP2D6 [13] = biological target: T3, CYP2D6 (Homo sapiens, UniProt P10635); conditions: both, microsomes, 30 min, 0.123 µM, pH 7.4
CYP2D6 [14] = biological target: T3, CYP2D6; test: in vitro; conditions: both, microsomes, pH 7.4, % of Control Enzyme Activity
CYP1A2 = CYP1A2 (Homo sapiens, UniProt P05177); conditions: 20 min, 50 μM, pH 7.4
OAT3 [15] = biological target: T4, OAT3 (Homo sapiens, UniProt Q8TCC7); test: uptake transporter inhibition assessment, transfected HEK293; conditions: inhibitor 100 μM
OAT3 [16] = biological target: T4, OAT3; test: in vitro; conditions: HEK293 cells transfected with OAT3, probe furosemide (5 µM)
in vitro [17] = conditions: dog, MDCK-MDR1, pH 7.4
[18] = cell batch quality control, BCRP-MDCK monolayers; type: in vitro ADME; conditions: dog; BCRP-MDCK cell batch QC; passage 23
Protocol: BCRP-MDCK cell monolayers were prepared at Absorption Systems. […] Each determination was performed in duplicate.

MATE2K [19] = biological target: T5, MATE2K (Homo sapiens, UniProt Q86VL8); test: in vitro; conditions: HEK293 cells transfected with MATE2K, probe metformin (50 µM)
MATE2K [20] = biological target: T5, MATE2K; test: uptake transporter inhibition assessment, transfected HEK293; conditions: inhibitor 1 μM
[21] = CYP Control (negative control without CYP enzymes) in hrCYP reaction phenotyping; conditions: S-mephenytoin 20 μM, metabolite 4′ - OH Mephenytoin

T2 sequence (P08183 whole entry): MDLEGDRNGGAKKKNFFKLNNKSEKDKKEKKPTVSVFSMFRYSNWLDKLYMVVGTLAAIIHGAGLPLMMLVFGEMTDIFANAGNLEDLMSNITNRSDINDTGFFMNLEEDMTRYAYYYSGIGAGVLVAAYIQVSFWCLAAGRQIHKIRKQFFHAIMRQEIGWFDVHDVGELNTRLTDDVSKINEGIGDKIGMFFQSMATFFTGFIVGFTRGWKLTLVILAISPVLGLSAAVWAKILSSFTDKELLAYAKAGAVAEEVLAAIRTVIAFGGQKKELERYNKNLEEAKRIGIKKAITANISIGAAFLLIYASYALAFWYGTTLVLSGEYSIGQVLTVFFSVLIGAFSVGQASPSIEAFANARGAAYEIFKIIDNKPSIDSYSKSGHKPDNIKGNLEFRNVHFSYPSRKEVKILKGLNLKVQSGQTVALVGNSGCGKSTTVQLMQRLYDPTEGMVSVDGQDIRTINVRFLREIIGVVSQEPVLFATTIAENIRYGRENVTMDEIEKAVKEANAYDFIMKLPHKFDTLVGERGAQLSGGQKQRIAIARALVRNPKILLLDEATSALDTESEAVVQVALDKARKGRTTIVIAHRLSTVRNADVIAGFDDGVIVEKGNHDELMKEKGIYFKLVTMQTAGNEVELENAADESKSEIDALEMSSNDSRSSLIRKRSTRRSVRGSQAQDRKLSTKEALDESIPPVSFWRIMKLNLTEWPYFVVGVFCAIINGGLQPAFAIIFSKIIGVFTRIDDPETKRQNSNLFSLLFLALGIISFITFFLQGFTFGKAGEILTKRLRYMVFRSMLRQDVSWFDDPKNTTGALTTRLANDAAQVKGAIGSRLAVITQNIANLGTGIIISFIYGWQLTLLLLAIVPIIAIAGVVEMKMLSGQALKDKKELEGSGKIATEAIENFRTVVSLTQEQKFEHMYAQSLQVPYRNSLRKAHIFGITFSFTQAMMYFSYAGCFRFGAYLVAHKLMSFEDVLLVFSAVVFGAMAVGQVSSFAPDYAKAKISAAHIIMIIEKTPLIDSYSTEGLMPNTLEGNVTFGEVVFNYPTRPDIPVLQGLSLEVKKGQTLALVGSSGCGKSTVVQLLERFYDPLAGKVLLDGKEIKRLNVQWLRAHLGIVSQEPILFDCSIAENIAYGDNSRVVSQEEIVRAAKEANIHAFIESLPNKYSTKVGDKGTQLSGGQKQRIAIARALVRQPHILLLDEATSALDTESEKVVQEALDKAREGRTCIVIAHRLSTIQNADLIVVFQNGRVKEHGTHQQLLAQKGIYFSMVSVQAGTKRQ
Sequence of CYP1A2 (P05177 whole entry): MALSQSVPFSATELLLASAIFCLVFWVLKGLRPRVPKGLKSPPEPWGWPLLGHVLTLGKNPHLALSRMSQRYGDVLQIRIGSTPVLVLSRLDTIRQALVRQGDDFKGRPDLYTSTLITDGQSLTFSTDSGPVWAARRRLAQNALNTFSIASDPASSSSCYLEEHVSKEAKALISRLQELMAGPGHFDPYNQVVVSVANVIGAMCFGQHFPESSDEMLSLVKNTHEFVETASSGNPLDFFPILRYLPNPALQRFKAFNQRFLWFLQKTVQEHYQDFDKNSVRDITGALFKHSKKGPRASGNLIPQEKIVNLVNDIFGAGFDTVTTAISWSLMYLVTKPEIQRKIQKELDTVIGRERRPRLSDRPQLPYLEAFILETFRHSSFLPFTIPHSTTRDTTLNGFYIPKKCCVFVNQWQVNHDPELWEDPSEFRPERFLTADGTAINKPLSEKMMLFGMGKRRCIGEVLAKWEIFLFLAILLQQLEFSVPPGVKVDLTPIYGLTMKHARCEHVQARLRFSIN
T5 sequence (Q86VL8 1-566 isoform Q86VL8-3): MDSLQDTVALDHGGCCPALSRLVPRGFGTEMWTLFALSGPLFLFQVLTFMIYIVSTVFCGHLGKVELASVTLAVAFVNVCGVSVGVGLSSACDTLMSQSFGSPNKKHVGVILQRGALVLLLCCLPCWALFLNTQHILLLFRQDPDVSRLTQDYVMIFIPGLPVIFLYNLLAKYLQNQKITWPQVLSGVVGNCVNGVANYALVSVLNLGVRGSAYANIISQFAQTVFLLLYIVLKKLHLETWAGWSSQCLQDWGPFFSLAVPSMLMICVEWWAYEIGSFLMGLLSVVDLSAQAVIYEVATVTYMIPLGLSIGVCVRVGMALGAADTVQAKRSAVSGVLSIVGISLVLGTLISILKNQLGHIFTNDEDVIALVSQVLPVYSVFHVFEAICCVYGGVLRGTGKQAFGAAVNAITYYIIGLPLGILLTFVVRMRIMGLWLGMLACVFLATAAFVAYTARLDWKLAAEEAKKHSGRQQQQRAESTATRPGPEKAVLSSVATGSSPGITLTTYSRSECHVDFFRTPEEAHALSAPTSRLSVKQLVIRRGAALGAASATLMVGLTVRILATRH
T3 sequence (P10635 whole entry): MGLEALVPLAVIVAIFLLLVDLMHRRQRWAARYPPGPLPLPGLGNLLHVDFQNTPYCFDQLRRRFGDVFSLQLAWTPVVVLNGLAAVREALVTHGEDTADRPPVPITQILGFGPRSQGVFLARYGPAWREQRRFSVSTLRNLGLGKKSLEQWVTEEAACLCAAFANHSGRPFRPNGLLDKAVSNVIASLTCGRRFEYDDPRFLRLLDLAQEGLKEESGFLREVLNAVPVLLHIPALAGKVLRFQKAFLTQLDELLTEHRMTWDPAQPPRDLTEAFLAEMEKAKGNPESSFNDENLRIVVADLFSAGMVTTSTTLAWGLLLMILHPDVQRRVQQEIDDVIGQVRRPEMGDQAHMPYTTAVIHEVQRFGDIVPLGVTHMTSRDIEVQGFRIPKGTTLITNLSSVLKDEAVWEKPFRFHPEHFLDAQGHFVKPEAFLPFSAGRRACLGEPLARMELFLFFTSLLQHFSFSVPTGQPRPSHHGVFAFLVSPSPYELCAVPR
T4 sequence (Q8TCC7 whole entry): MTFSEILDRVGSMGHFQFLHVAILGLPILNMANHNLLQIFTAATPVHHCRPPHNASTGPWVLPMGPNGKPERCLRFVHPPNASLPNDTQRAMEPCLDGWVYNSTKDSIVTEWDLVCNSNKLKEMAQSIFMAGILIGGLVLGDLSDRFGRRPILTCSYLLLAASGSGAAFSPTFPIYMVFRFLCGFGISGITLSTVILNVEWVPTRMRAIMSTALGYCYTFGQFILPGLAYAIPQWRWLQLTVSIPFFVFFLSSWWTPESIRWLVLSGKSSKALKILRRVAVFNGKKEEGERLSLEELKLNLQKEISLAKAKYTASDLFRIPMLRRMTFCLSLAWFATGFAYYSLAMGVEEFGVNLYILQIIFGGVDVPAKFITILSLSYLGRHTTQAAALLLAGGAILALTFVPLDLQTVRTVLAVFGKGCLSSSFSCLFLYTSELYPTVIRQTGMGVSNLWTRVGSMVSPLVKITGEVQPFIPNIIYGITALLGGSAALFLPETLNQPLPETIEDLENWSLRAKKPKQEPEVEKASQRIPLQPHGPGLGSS
T1 sequence (Q96FL8 whole entry): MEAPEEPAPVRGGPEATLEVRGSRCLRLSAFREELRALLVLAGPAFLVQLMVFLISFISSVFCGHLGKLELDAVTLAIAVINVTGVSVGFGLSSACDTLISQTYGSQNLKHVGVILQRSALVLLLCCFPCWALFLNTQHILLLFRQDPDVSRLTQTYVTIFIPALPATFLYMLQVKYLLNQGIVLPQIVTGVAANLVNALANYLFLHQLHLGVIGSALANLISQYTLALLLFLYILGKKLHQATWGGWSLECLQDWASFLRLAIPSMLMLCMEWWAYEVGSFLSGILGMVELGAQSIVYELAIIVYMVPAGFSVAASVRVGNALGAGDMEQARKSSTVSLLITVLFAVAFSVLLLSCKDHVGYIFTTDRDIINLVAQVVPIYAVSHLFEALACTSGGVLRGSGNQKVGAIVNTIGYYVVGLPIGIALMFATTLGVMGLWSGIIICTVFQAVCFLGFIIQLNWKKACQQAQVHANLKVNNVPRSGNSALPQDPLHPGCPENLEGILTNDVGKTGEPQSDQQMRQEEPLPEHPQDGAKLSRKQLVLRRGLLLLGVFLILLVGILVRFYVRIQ
Sequence of CYP2C9 (P11712 whole entry): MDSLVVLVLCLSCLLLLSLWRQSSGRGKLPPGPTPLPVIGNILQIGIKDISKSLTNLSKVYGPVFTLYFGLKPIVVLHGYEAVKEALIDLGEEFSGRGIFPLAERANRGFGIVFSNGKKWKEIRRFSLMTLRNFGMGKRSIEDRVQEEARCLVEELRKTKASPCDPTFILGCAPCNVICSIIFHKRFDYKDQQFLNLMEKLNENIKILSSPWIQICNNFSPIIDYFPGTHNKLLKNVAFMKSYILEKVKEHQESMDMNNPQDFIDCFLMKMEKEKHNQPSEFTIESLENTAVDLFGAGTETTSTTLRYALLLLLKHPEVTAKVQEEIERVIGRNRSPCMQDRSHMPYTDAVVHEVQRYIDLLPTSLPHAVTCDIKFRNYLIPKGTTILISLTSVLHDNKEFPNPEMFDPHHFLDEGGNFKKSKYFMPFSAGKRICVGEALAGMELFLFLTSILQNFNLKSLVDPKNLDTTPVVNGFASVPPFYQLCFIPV

recovery at 120 min, 10 µM (P-GP [4]; Caco-2, pH 7.4, % Recovery): 95.4%
Papp B→A at 120 min, 10 μM (P-GP [4]; Caco-2, pH 7.4, Papp AVG): 109 nm/s
Papp A→B at 120 min, 10 μM (P-GP [4]; Caco-2, pH 7.4, Papp R1): 3.44 nm/s
Papp A→B at 120 min, 10 μM (P-GP [4]; Caco-2, pH 7.4, Papp R2): 6.45 nm/s
Papp B→A at 120 min, 10 μM (P-GP [4]; Caco-2, pH 7.4, Papp R2): 105 nm/s
recovery at 120 min, 10 µM (P-GP [4]; Caco-2, pH 7.4, Recovery (%)): 73.4%
Papp A→B at 120 min (P-GP [5]): 3.44 nm/s
Papp B→A at 120 min (P-GP [5]): 105 nm/s
recovery at 120 min (P-GP [5]): 73.4%
Papp A→B at 120 min (P-gp [6]): 0.792 nm/s
Papp B→A (P-gp (MDR1)): 110 nm/s
P-gp Substrate Classification (P-GP [7]; Digoxin): Positive
Recovery (%) (P-GP [7]; Digoxin + 1 μM Valspodar, A-to-B): 72.2%
Recovery (%) (P-GP [7]; Digoxin + 1 μM Valspodar, B-to-A): 95.3%
Papp AVG (P-GP [7]; Digoxin, A-to-B): 0.494 10^−6 cm/s
Papp AVG (P-GP [7]; Digoxin, B-to-A): 10.9 10^−6 cm/s
Papp R1 (P-GP [7]; Digoxin, B-to-A): 11.4 10^−6 cm/s
Recovery (%) (P-GP [7]; Digoxin, B-to-A): 79.9%
Papp B→A at 120 min (P-GP [8]): 104 nm/s
recovery at 120 min (P-GP [8]): 77.6%
Papp A→B at 120 min (P-gp [9]): 4.03 nm/s
Papp B→A at 120 min (P-gp [9]): 89.3 nm/s
Papp A→B (in vitro [10]): 5.11 nm/s
P-gp Substrate Classification (P-GP [11]; Digoxin): Positive
Recovery (%) (P-GP [11]; Digoxin + 1 μM Valspodar): 85.9%
Papp AVG (P-GP [11]; Digoxin, A-to-B): 0.0321 10^−6 cm/s
Papp R1 (P-GP [11]; Digoxin, A-to-B): 0.0436 10^−6 cm/s
Recovery (%) (P-GP [11]; Digoxin): 74.9%
Recovery (%) (P-GP [12]): 79.9%
Structure (SMILES): C[C@H]1O[C@@H](O[C@H]2[C@@H](O)C[C@H](O[C@H]3[C@@H](O)C[C@H](O[C@H]4CC[C@@]5(C)[C@H](CC[C@@H]6[C@@H]5C[C@@H](O)[C@]5(C)[C@@H](C7=CC(=O)OC7)CC[C@]65O)C4)O[C@@H]3C)O[C@@H]2C)C[C@H](O)[C@@H]1O [Digoxin, digoxin]

% of Control Enzyme Activity (CYP2D6 [13]): 79.1%
activity at 30 min, 0.123 µM (CYP2D6 [14]): 95.8%
Structure (SMILES): Fc1ccc([C@@H]2CCNC[C@H]2COc2ccc3c(c2)OCO3)cc1 [Paroxetine]

inhibition at 100 µM (OAT3 [16]): 72%
Structure (SMILES): CCCN(CCC)S(=O)(=O)c1ccc(C(=O)O)cc1 [Probenecid]
Inhibition Potential Classification (OAT3 [15]): Positive (Percent inhibition≥50%: Positive)

inhibition at 1 µM (MATE2K [19]): 93.3%
Structure (SMILES): CCc1nc(N)nc(N)c1-c1ccc(Cl)cc1 [Pyrimethamine]
Inhibition Potential Classification (MATE2K [20]): Positive (Percent inhibition≥50%: Positive)

More lines, now with the values behind:

Structure (SMILES): CN/C(=N/CCSCc1nc[nH]c1C)NC#N [Cimetidine]
inhibition at 100 µM (MATE1 [1]): 99.2%
Inhibition Potential Classification (MATE1 [2]): Positive (Percent inhibition≥50%: Positive)

Structure (SMILES): O=C(O)Cc1ccccc1Nc1c(Cl)cccc1Cl [Diclofenac]
recovery at 60 min, 2 μM (in vitro [3]; both, human): 91.2 ± 4.43%
Analyte Peak/IS Peak Ares (Mean), T60-blood (in vitro [3]; both, human): 0.311
Analyte Peak/IS Peak Ares (Mean), T60-plasma (in vitro [3]; both, human): 0.473
recovery at 60 min, 2 μM (in vitro [3]; male, CD-1, mouse): 100 ± 6.79%
Analyte Peak/IS Peak Ares (Mean), T60-blood (in vitro [3]; male, CD-1, mouse): 0.365
Analyte Peak/IS Peak Ares (Mean), T60-plasma (in vitro [3]; male, CD-1, mouse): 0.501
recovery at 60 min, 2 μM (in vitro [3]; male, Sprague-Dawley, rat): 100 ± 3.45%
Analyte Peak/IS Peak Ares (Mean), T0 (in vitro [3]; male, Sprague-Dawley, rat): 0.330
Analyte Peak/IS Peak Ares (Mean), T60-blood (in vitro [3]; male, Sprague-Dawley, rat): 0.331
Analyte Peak/IS Peak Ares (Mean), T60-plasma (in vitro [3]; male, Sprague-Dawley, rat): 0.480
recovery at 60 min, 2 μM (in vitro [3]; male, beagle, dog): 104 ± 1.36%
Analyte Peak/IS Peak Ares (Mean), T0 (in vitro [3]; male, beagle, dog): 0.301
Analyte Peak/IS Peak Ares (Mean), T60-blood (in vitro [3]; male, beagle, dog): 0.313
Analyte Peak/IS Peak Ares (Mean), T60-plasma (in vitro [3]; male, beagle, dog): 0.484
recovery at 60 min, 2 μM (in vitro [3]; male, cynomolgus monkey): 101 ± 8.23%
Analyte Peak/IS Peak Ares (Mean), T0 (in vitro [3]; male, cynomolgus monkey): 0.314
Analyte Peak/IS Peak Ares (Mean), T60-blood (in vitro [3]; male, cynomolgus monkey): 0.318
Analyte Peak/IS Peak Ares (Mean), T60-plasma (in vitro [3]; male, cynomolgus monkey): 0.513
Formation Rate (CYP2C9): 650 pmol metabolite/min/mg Supersome protein
Measured Metabolite (CYP2C9): 0.676 µM

Structure (SMILES): CCOc1ccc(NC(C)=O)cc1 [Phenacetin]
Formation Rate (CYP1A2): 1819 pmol metabolite/min/mg Supersome protein
Measured Metabolite (CYP1A2): 3.71 µM

Structure (SMILES): CC(C)NCC(O)COc1cccc2ccccc12 (stereo not drawn) [Propranolol]
Papp at 120 min (in vitro [17]): 203 nm/s
Papp [18]: 201 nm/s

Structure (SMILES): CC[C@@]1(c2ccccc2)NC(=O)N(C)C1=O [S-mephenytoin]
Formation Rate [21]: 0 pmol metabolite/min/mg Supersome protein
Measured Metabolite [21]: 0 µM
